# Assays:
# [1] = system: Saos-2 cells over expressing functional BCRP#4; assay: cells; format: cell-based, human; settings: for IC50: Homo sapiens, SAOS-2, 144 h, read-out: BCRP mut#4 (IC50 (nM))
# Method: (§1) The anticancer effect of 5(S)-(2′-hydroxyethoxy)-20(S)-camptothecin & 5(R)-(2′-hydroxyethoxy)-20(S)-camptothecin were evaluated versus the racemate 5(RS)-(2′-hydroxyethoxy)-20(S)-camptothecin on Saos-2 cells over expressing functional BCRP#4 and non-functional BCRP mut#10. The human osteosarcoma cell line, Saos-2, was obtained from ATCC (American Type Culture Collection, Cat#HTB-85, Manassas, Va.) and were maintained in DMEM containing 10% fetal bovine serum, 1% penicillin/streptomycin, and 2 mM glutamine. Saos-2 cells were transfected with either BCRP#4 to over express functional BCRP or BCRP#10 to over express non-functional BCRP transporter. The cells were plated in 96-well plates at a density of 1000 cells per each well in a 0.1 ml of medium and allowed to attach overnight. The next morning the medium was gently aspirated and serial dilutions of the compounds to be tested were added. The cells were incubated at 37° C. in a 5% CO2 incubator. After 6 days of exposure to the test drugs, 10µl of Alamar blue was added aseptically to each well and the plates were returned to the incubator for 6 hr. The amount of the fluorescent dye produced was measured on a Cytofluor.RTM. 2300 (Millipore, Bedford, Mass.) using an excitation wavelength of 530 nm and emission wavelength of 590 nm. The relative fluorescence units obtained were used to calculate the percentage growth at each concentration in relation to the untreated control values. From the percentage growth values the IC50 (inhibitory concentration required to inhibit the cell growth by 50% compared to control cells growth) values were derived.
# [2] = system: Saos-2 cells over expressing non-functional BCRP mut#10; assay: cells; format: cell-based, human; settings: for IC50: Homo sapiens, SAOS-2, 144 h, read-out: BCRP mut#10 (IC50 (nM))
# Method: as §1
# [3] = system: NCl-H460 (human small cell lung carcinoma) xenografts; assay: NCl-H460 xenograft study in nude mice; settings: oral, (d×5)2 schedule
# Method: To perform the NCl-H460 xenograft study, NCl-H460 tumor pieces measuring ~60 mm^3 were implanted in the space of dorsal lateral flanks of female athymic nude mice to initiate tumor growth. When the tumors were grown to ~150-1000 mm^3, animals were randomized into groups of five prior to initiating therapy. […] Each gram of placebo was formulated to contain 895.2 mg hydroxylpropyl beta cyclodextran, 89.52 mg dextrose anhydrous and 14.9 mg sodium carbonate. Each formulation was dissolved in 2 ml sterile water and administered through oral route in a (d×5)2 schedule. Tumor diameters were measured twice a week using a vernier caliper.
# Tumor volumes were calculated assuming tumors to be ellipsoid using the formula: V=(D×d^2)/2, where V (mm^3) is tumor volume, D is longest diameter in mm and d is shortest diameter in mm. Change in tumor volumes (Δ) for each treated (T) and control (C) group were calculated by subtracting the mean tumor volume on the first day of treatment (starting day) from the mean tumor volume on the specified observation day. These values were used to calculate a percentage growth (% T/C) using the formulas:
# Percentage tumor growth inhibition (% TGI) was then calculated using the formula: % TGI=100−% TC.
# All of the mice bearing subcutaneous tumors measuring approximately 150-800 mm^3 were treated with test compound through oral gavage using a (d×5)2 schedule. Tumor diameters were measured twice in a week using vernier calipers and tumor volumes were calculated assuming tumors to be ellipsoid using the formula V=(D×d^2)/2 where V (mm^3) is tumor volume, D is longest diameter in mm., and d is shortest diameter in mm. Changes in tumor Volumes (Δ volumes) for each treated (T) and control (C) group are calculated, by subtracting the mean tumor volume on the first day of treatment (starting day) from the mean tumor volume of on the specified observation day. These values are used to calculate a percentage growth (% T/C) using the formula: […]
# Tumor regressions are defined as partial if the tumor volume decreases to 50% or less of the tumor volume at the start of the treatment without dropping below to 63 mm^3. Complete regression is defined if the tumor volume drops to below measurable limits (<63 mm^3).
# The percentage body weight change in comparison to starting day body weight of each animal was calculated using the formula: Percentage Body weight change=[(Body weight on specified observation day-Body weight on starting day)/Body weight on starting day]×100.
# The other parameter observed was mortality.
# [4] = system: Osteosarcoma-29 xenograft; assay: Osteosarcoma tumor regression model; format: in vivo, mice; set-up: key: 6+: Maintained Complete Regression; 5+: Complete Regression; 4+: Partial Regression; 3+: Stable Disease; settings: 28 mg/kg oral gavage, [(d×5)2]3 schedule
# Method: (§2) This test was carried out with the use of the methods described in Cancer, Res., Oct. 15, 64:20:7491-9 (2004), and in Clin. Cancer Res., Nov. 15:9 (15):5442-53 (2003).
# (§3) All mice bearing subcutaneous (“Sc”) tumors measuring approximately 0.2-1 cm in diameter were treated with a test compound by oral gavage using [(d×5)2]3 schedule. […] The tumor response to the test compound was defined as follows: For individual tumors, partial regression (“PR”) was defined as a volume regression >50%, but with measurable tumor at all times. Complete regression (“CR”) was defined as disappearance of measurable tumor mass at some point within 12 weeks after initiation of therapy. Maintained CR is defined as no tumor re-growth within a 12-week study time frame. This time point was chosen because all studies lasted at least 12 weeks. Mice that died before the end of the 12-week study time, and prior to achieving a response, were considered as failures for tumor response.
# [5] = system: Osteosarcoma-17 xenograft; assay: Osteosarcoma tumor regression model; format: in vivo, mice; set-up: key: 6+: Maintained Complete Regression; 5+: Complete Regression; 4+: Partial Regression; 3+: Stable Disease; settings: 28 mg/kg oral gavage, [(d×5)2]3 schedule
# Method: as §2, §3
# [6] = system: Osteosarcoma-32 xenograft; assay: Osteosarcoma tumor regression model; format: in vivo, mice; set-up: key: 6+: Maintained Complete Regression; 5+: Complete Regression; 4+: Partial Regression; 3+: Stable Disease; settings: 28 mg/kg oral gavage, [(d×5)2]3 schedule
# Method: as §2, §3
# Osteosarcoma-2 xenograft = assay: Osteosarcoma tumor regression model; format: in vivo, mice; set-up: key: 6+: Maintained Complete Regression; 5+: Complete Regression; 4+: Partial Regression; 3+: Stable Disease; settings: 28 mg/kg oral gavage, [(d×5)2]3 schedule
# Method: as §2, §3
SMILES,IC50 [1],IC50 [2],% Tumor Growth Inhibition ([3]; Dose 2 mg/kg),Mortality ([3]; Dose 2 mg/kg),% Tumor Growth Inhibition ([3]; Dose 4 mg/kg),Mortality ([3]; Dose 4 mg/kg),Tumor response [4],Tumor response [5],Tumor response [6],Tumor response (Osteosarcoma-2 xenograft),fold more cytotoxic than 5(R)-(2′-hydroxyethoxy)-20(S)-camptothecin [1],fold more cytotoxic than 5(R)-(2′-hydroxyethoxy)-20(S)-camptothecin [2]
"CC[C@@]1(O)C(=O)OCc2c1cc1n(c2=O)C(OCCO)c2cc3ccccc3nc2-1 (mixture of isomers) [5(RS)-(2′-hydroxyethoxy)-20(S)-camptothecin, reference compound]",1260 nM,387 nM,60%,0/5,64%,0/5,5+,4+,3+,5+,–,–
"CC[C@@]1(O)C(=O)OCc2c1cc1n(c2=O)[C@@H](OCCO)c2cc3ccccc3nc2-1 [DRF-(5S,20S)-1042, 5(S)-(2′-hydroxyethoxy)-20(S)-camptothecin]",788 nM,213 nM,68%,0/5,76%,0/5,6+,6+,6+,6+,> 2.5 fold,~6 fold
